Measurements: patent publication US8921397B2, “Benzofurane-piperidine compounds” (Hoffmann-La Roche Inc., priority 2011, dated 2014)

What was measured:
human D2 receptor = human D2 receptor (Homo sapiens (Human), UniProt P14416); experiment: Radioligand binding ([3H]-spiperone) to human D2 receptor, HEK293 EBNA membranes; details: HEK293 EBNA cells expressing human D2 receptor
Experimental: (§1) HEK293 EBNA cells were transiently transfected with expression plasmids encoding for the human D2 or D3 or for the human 5-HT2A receptor, respectively. The cells were harvested 48 h post-transfection, washed three times with cold PBS and stored at −80° C. prior to use. The pellet was suspended in cold 50 mM Tris-HCl buffer containing 10 mM EDTA (pH 7.4) and was homogenized with a Polytron (Kinematica AG, Basel, Switzerland) for 20-30 sec at 12.000 rpm. After centrifugation at 48.000×g for 30 min at 4° C., the pellet was resuspended in cold 10 mM Tris-HCl buffer containing 0.1 mM EDTA (pH 7.4), homogenized, and centrifuged as above. This pellet was further resuspended in a smaller volume of ice cold 10 mM Tris-HCl buffer containing 0.1 mM EDTA (pH 7.4) and homogenized with a Polytron for 20-30 sec at 12.000 rpm. The protein content of this homogenate was determined with the Bio-Rad (Bradford) Protein Assay (Biorad Laboratories GmbH, München, Germany) according to the instructions of the manufacturer using gamma globulin as the standard. This homogenate was stored at −80° C. in aliquots and thawed immediately prior to use.
(§2) Aliquots of membrane preparations were thawed at RT, resuspended in assay buffer (D2, D3: 50 mM Tris-HCl, 120 mM NaCl, 5 mM MgCl2, 1 mM EDTA, 5 mM KCl, 1.5 mM CaCl2, pH=7.4; 5-HT2A: 50 mM Tris-HCl, 10 mM MgCl2, 1 mM EGTA, pH=7.4), homogenized with a Polytron for 20-30 sec at 12.000 rpm and adjusted to a final concentration of approximately 7.5 μg protein/well (D2, D3) and 15 μg protein/well (5-HT2A), respectively.
(§3) The binding affinity (Ki) of the compounds was determined using radioligand binding.
(§4) Membranes were incubated in a total volume of 200 μl with a fixed concentration of radioligand (final concentration approximately 0.7 nM [^3H]-spiperone for D2, 0.5 nM [^3 H]-spiperone for D3, and 1.1 nM [^3H]-ketanserin for 5-HT2A) and ten concentrations of test compound in ranging between 10 μM-0.1 nM for 1 h at RT. At the end of the incubation, the reaction mixtures were filtered on to unifilter 96-well white microplates with bonded GF/C filters (Packard BioScience, Zürich, Switzerland; preincubated for 1 h in 0.1% polyethylenimine (PEI) in assay buffer) with a Filtermate 196 harvester (Packard BioScience) and washed 3 times with cold assay buffer. The nonspecific binding was determined with equally composed reaction mixtures in the presence of 10 μM unlabelled spiperone. Per well 45 μl of Microscint 40 (Perkin Elmer, Schwerzenbach, Switzerland) was added, plates for sealed, shaken for 20 min and counted for 3 min on a Topcount Microplate Scintillation Counter (Canberra Packard SA, Zürich, Switzerland) with quenching correction.
(§5) The CPM value for each duplicate of a concentration of competing compound was averaged (y1), then the % specific binding was calculated according to the equation (((y1−non-specific)/(total binding−non-specific))×100). Graphs were plotted with the % specific binding using XLfit, a curve-fitting program that iteratively plots the data using Levenberg-Marquardt algorithm. The single site competition analysis equation used was y=A+((B−A)/(1+((x/C)D))), where y is the % specific binding, A is the minimum y, B is the maximum y, C is the IC50, x is the log 10 of the concentration of the competing compound and D is the slope of the curve (the Hill Coefficient). From these curves the IC50 (inhibition concentration at which 50% specific binding of the radioligand was displaced) and Hill coefficient were determined. The affinity constant (Ki) was calculated using the Cheng-Prusoff equation Ki=(IC50/1+([L]/Kd), where [L] is the concentration of radioligand and Kd is the dissociation constant of the radioligand at the receptor as determined by the saturation isotherm.

human D3 receptor = human D3 receptor (Homo sapiens (Human), UniProt P35462); experiment: Radioligand binding ([3H]-spiperone) to human D3 receptor, HEK293 EBNA membranes; details: HEK293 EBNA cells expressing human D3 receptor
Experimental: as §1, §2, §3, §4, §5

human 5-HT2A receptor = human 5-HT2A receptor (Homo sapiens (Human), UniProt P28223); experiment: Radioligand binding ([3H]-ketanserin) to human 5-HT2A receptor, HEK293 EBNA membranes; details: HEK293 EBNA cells expressing human 5-HT2A receptor
Experimental: The ability of the compounds to bind to the 5-HT2A, D3 and D2 receptors was determined using radioligand binding to cloned receptors selectively expressed in HEK-293 EBNA cells.
as §1, §2, §3, §4, §5

Sequence of human D2 receptor (P14416 whole entry): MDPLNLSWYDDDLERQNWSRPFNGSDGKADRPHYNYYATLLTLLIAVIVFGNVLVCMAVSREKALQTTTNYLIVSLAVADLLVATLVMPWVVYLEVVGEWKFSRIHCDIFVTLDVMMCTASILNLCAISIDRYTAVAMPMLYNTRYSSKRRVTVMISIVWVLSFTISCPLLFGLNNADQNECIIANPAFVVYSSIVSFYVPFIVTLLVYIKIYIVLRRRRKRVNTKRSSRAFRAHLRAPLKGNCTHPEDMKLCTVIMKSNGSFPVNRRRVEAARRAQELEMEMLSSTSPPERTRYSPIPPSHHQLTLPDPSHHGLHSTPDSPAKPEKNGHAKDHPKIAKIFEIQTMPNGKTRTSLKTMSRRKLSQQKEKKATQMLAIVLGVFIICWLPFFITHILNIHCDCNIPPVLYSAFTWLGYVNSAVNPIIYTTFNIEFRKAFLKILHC
Sequence of human D3 receptor (P35462 whole entry): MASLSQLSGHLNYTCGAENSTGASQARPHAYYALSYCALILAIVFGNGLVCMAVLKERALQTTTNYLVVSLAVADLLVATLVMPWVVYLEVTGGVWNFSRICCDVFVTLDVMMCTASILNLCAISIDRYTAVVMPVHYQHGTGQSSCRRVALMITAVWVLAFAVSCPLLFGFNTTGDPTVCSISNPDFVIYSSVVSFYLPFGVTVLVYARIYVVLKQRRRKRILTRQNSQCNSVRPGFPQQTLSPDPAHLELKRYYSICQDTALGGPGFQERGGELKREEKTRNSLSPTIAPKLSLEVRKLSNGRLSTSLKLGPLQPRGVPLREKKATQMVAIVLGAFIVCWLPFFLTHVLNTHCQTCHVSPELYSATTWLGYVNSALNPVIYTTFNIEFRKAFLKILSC
Sequence of human 5-HT2A receptor (P28223 whole entry): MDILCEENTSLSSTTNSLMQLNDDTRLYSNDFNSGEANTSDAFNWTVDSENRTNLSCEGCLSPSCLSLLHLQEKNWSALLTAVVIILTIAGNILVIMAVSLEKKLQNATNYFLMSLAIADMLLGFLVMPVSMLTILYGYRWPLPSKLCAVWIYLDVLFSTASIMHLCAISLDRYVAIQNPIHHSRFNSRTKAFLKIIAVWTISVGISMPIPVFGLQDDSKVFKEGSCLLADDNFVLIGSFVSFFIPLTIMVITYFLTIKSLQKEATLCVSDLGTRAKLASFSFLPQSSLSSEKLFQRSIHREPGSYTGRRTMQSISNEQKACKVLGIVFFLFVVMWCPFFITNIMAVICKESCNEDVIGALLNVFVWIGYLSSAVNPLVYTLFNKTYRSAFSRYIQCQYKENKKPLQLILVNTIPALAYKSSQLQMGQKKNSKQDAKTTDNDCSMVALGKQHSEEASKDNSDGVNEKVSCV

SMILES	Ki (human D2 receptor)	Ki (human D3 receptor)	Ki (human 5-HT2A receptor)	melting point
Cc1cc(C(=O)N[C@H]2CC[C@H](CCN3CCC(c4coc5ccccc45)CC3)CC2)on1 [Example 41, 3-Methyl-isoxazole-5-carboxylic acid trans-{4-[2-(4-benzofuran-3-yl-piperidin-1-yl)-ethyl]-cyclohexyl}-amide]	36.4 nM	4.23 nM	9.21 nM	178 °C
CN(C)C(=O)CCC(=O)N[C@H]1CC[C@H](CCN2CCC(c3coc4ccccc34)CC2)CC1 [Example 42, trans-N-{4-[2-(4-Benzofuran-3-yl-piperidin-1-yl)-ethyl]-cyclohexyl}-N′,N′-dimethyl-succinamide]	92.3 nM	2.43 nM	7.8 nM	167 °C
CN(C)S(=O)(=O)N[C@H]1CC[C@H](CCN2CCC(c3coc4ccccc34)CC2)CC1 [Example 43, N′-(trans-4-{2-[4-(benzofuran-3-yl)-piperidin-1-yl]-ethyl}-cyclohexyl)-N,N-dimethylsulfamide]	47 nM	3.02 nM	4.41 nM	229 °C
O=C(CCC(F)(F)F)N[C@H]1CC[C@H](CCN2CCC(c3coc4ccccc34)CC2)CC1 [Example 44, trans-N-{4-[2-(4-Benzofuran-3-yl-piperidin-1-yl)-ethyl]-cyclohexyl}-4,4,4-trifluoro-butyramide]	61.2 nM	2.94 nM	15 nM	192 °C
CC(C)CCC(=O)N[C@H]1CC[C@H](CCN2CCC(c3coc4ccccc34)CC2)CC1 [Example 45, 4-Methyl-pentanoic acid trans-{4-[2-(4-benzofuran-3-yl-piperidin-1-yl)-ethyl]-cyclohexyl}-amide]	66 nM	2.9 nM	13.1 nM	179 °C
CC[C@@H](O)CC(=O)N[C@H]1CC[C@H](CCN2CCC(c3coc4ccccc34)CC2)CC1 [Example 46, (R)-3-Hydroxy-pentanoic acid trans-{4-[2-(4-benzofuran-3-yl-piperidin-1-yl)-ethyl]-cyclohexyl}-amide]	55.4 nM	2.49 nM	8.7 nM	142 °C
CC[C@H](O)CC(=O)N[C@H]1CC[C@H](CCN2CCC(c3coc4ccccc34)CC2)CC1 [Example 47, (S)-3-Hydroxy-pentanoic acid trans-{4-[2-(4-benzofuran-3-yl-piperidin-1-yl)-ethyl]-cyclohexyl}-amide]	33.8 nM	2.25 nM	9.1 nM	140 °C
O=C(CC1CCC1)N[C@H]1CC[C@H](CCN2CCC(c3coc4ccccc34)CC2)CC1 [Example 48, trans-N-{4-[2-(4-Benzofuran-3-yl-piperidin-1-yl)-ethyl]-cyclohexyl}-2-cyclobutyl-acetamide]	58.2 nM	2.05 nM	4.94 nM	173 °C
O=C(N[C@H]1CC[C@H](CCN2CCC(c3coc4ccccc34)CC2)CC1)c1ccc(Cl)cc1 [Example 49, trans-N-{4-[2-(4-Benzofuran-3-yl-piperidin-1-yl)-ethyl]-cyclohexyl}-4-chloro-benzamide]	25.8 nM	3.22 nM	9.01 nM	203 °C
O=C(N[C@H]1CC[C@H](CCN2CCC(c3coc4ccccc34)CC2)CC1)c1ccc(C(F)(F)F)cc1 [Example 50, trans-N-{4-[2-(4-Benzofuran-3-yl-piperidin-1-yl)-ethyl]-cyclohexyl}-4-trifluoromethyl-benzamide]	152 nM	2.21 nM	4.75 nM	218 °C
O=C(N[C@H]1CC[C@H](CCN2CCC(c3coc4ccccc34)CC2)CC1)c1ccc(N2CCCCC2)cc1 [Example 51, trans-N-{4-[2-(4-Benzofuran-3-yl-piperidin-1-yl)-ethyl]-cyclohexyl}-4-piperidin-1-yl-benzamide]	345 nM	4.39 nM	6.85 nM	221 °C
COC(CC(=O)N[C@H]1CC[C@H](CCN2CCC(c3coc4ccccc34)CC2)CC1)OC [Example 52, trans-N-{4-[2-(4-Benzofuran-3-yl-piperidin-1-yl)-ethyl]-cyclohexyl}-3,3-dimethoxy-propionamide]	48.9 nM	1.46 nM	5.94 nM	148 °C
CC(C)=CC(=O)N[C@H]1CC[C@H](CCN2CCC(c3coc4ccccc34)CC2)CC1 [Example 53, 3-Methyl-but-2-enoic acid trans-{4-[2-(4-benzofuran-3-yl-piperidin-1-yl)-ethyl]-cyclohexyl}-amide]	18 nM	2.83 nM	9.68 nM	147 °C
C/C=C/CC(=O)N[C@H]1CC[C@H](CCN2CCC(c3coc4ccccc34)CC2)CC1 [Example 54, (E)-Pent-3-enoic acid trans-{4-[2-(4-benzofuran-3-yl-piperidin-1-yl)-ethyl]-cyclohexyl}-amide]	58 nM	1.81 nM	12.3 nM	165 °C
CC#CC(=O)N[C@H]1CC[C@H](CCN2CCC(c3coc4ccccc34)CC2)CC1 [Example 55, But-2-ynoic acid trans-{4-[2-(4-benzofuran-3-yl-piperidin-1-yl)-ethyl]-cyclohexyl}-amide]	25.6 nM	2.09 nM	7.89 nM	161 °C
O=CN[C@H]1CC[C@H](CCN2CCC(c3coc4ccccc34)CC2)CC1 [Example 56, trans-N-{4-[2-(4-Benzofuran-3-yl-piperidin-1-yl)-ethyl]-cyclohexyl}-formamide]	38.8 nM	2.68 nM	13.4 nM	155 °C
CCCCC(=O)N[C@H]1CC[C@H](CCN2CCC(c3coc4ccccc34)CC2)CC1 [Example 57, Pentanoic acid trans-{4-[2-(4-benzofuran-3-yl-piperidin-1-yl)-ethyl]-cyclohexyl}-amide]	65.7 nM	2.21 nM	13 nM	167 °C
O=C(N[C@H]1CC[C@H](CCN2CCC(c3coc4ccccc34)CC2)CC1)c1ccc2c(c1)OCO2 [Example 58, Benzo[1,3]dioxole-5-carboxylic acid trans-{4-[2-(4-benzofuran-3-yl-piperidin-1-yl)-ethyl]-cyclohexyl}-amide]	28.6 nM	2.79 nM	8.78 nM	198 °C
O=C(N[C@H]1CC[C@H](CCN2CCC(c3coc4ccccc34)CC2)CC1)c1ccc(-n2cccn2)cc1 [Example 59, trans-N-[4-{2-(4-Benzofuran-3-yl-piperidin-1-yl)-ethyl]-cyclohexyl}-4-pyrazol-1-yl-benzamide]	46.9 nM	5.73 nM	22.2 nM	205 °C
CC(C)(C)c1ccc(C(=O)N[C@H]2CC[C@H](CCN3CCC(c4coc5ccccc45)CC3)CC2)cc1 [Example 60, trans-N-{4-[2-(4-Benzofuran-3-yl-piperidin-1-yl)-ethyl]-cyclohexyl}-4-tert-butyl-benzamide]	1110 nM	10.1 nM	3.77 nM	180 °C
